Activity calls are given as the source filed them. The rule behind the calls is not given here.
Tests used:
[1] = tested on: 3T3-L1; assay: Cytotoxicity against mouse 3T3L1 cells assessed as reduction in cell viability up to 10 uM; format: cell-based
[2] = tested on: 3T3-L1; assay: Anti-adipogenic activity in mouse 3T3L1 cells grown in differentiation media assessed as decrease in lipid accumulation up to 10 uM incubated for 8 days by Oil Red O staining based method; format: functional
[3] = tested on: 3T3-L1; assay: Inhibition of cell differentiation in mouse 3T3L1 cells assessed as reduction in pre-adipocyte differentiation into matured adipocytes at 5 uM incubated for 8 days followed by compound wash out measured by oil red O staining based method relative to control; format: functional; details: 3T3-L1, 192 h
[4] = tested on: 3T3-L1; assay: Downregulation of PPARgamma mRNA expression in mouse 3T3L1 cells up to 10 uM incubated for 8 days followed by compound wash out measured by RT-PCR method; format: functional, cell-based
[5] = tested on: 3T3-L1; assay: Downregulation of C/EBPalpha mRNA expression in mouse 3T3L1 cells up to 10 uM incubated for 8 days followed by compound wash out measured by RT-PCR method; format: functional, cell-based
[6] = tested on: 3T3-L1; assay: Downregulation of LPL mRNA expression in mouse 3T3L1 cells up to 10 uM incubated for 8 days followed by compound wash out measured by RT-PCR method; format: functional, cell-based
[7] = tested on: 3T3-L1; assay: Downregulation of FABP4 mRNA expression in mouse 3T3L1 cells up to 10 uM incubated for 8 days followed by compound wash out measured by RT-PCR method; format: functional, cell-based
[8] = tested on: 3T3-L1; assay: Anti-adipogenic activity in mouse 3T3L1 cells grown in differentiation media assessed as decrease in lipid accumulation incubated for 8 days by Oil Red O staining based method; format: functional, cell-based
[9] = tested on: 3T3-L1; assay: Downregulation of DGAT2 mRNA expression in mouse 3T3L1 cells up to 10 uM incubated for 8 days followed by compound wash out measured by RT-PCR method; format: functional, cell-based
[10] = tested on: 3T3-L1; assay: Antiinflammatory activity in mouse 3T3L1 cells assessed as reduction in IL-6 mRNA expression up to 10 uM incubated for 8 days followed by compound wash out measured by RT-PCR method; format: functional, cell-based
[11] = tested on: 3T3-L1; assay: Antiinflammatory activity in mouse 3T3L1 cells assessed as reduction in TNFalpha mRNA expression up to 10 uM incubated for 8 days followed by compound wash out measured by RT-PCR method; format: functional, cell-based
[12] = tested on: 3T3-L1; assay: Antiinflammatory activity in mouse 3T3L1 cells assessed as reduction in NFkappaB1 mRNA expression level up to 10 uM incubated for 8 days followed by compound wash out measured by RT-PCR method; format: functional, cell-based
[13] = tested on: 3T3-L1; assay: Downregulation of SCD1 mRNA expression in mouse 3T3L1 cells up to 10 uM incubated for 8 days followed by compound wash out measured by RT-PCR method; format: functional, cell-based
[14] = tested on: 3T3-L1; assay: Downregulation of FAS mRNA expression in mouse 3T3L1 cells up to 10 uM incubated for 8 days followed by compound wash out measured by RT-PCR method; format: functional, cell-based
[15] = tested on: 3T3-L1; assay: Downregulation of SREBP-1c mRNA expression in mouse 3T3L1 cells up to 10 uM incubated for 8 days followed by compound wash out measured by RT-PCR method; format: functional, cell-based
[16] = tested on: Mus musculus; assay: Antiobesity activity in HFD-induced obese C57BL/6N mouse model assessed as decrease in body weight at 50 mg/kg, po administered once daily for 12 weeks and measured every week for 12 weeks; format: functional, organism-based
[17] = tested on: Mus musculus; assay: Antiobesity activity in HFD-induced obese C57BL/6N mouse model assessed as decrease in epididymal fat mass level at 50 mg/kg, po administered once daily for 12 weeks; format: functional, organism-based
[18] = tested on: Mus musculus; assay: Antiobesity activity in HFD-induced obese C57BL/6N mouse model assessed as decrease in visceral fat mass at 50 mg/kg, po administered once daily for 12 weeks; format: functional, organism-based
[19] = tested on: Mus musculus; assay: Antiobesity activity in HFD-induced obese C57BL/6N mouse model assessed as reduction in epididymal WAT adipocyte size at 50 mg/kg, po administered once daily for 12 weeks by H and E staining based microscopic method; format: functional, organism-based

## C=C[C@@H]1C2=CCOC(=O)C2=CO[C@H]1O[C@@H]1O[C@H](CO)[C@@H](O)[C@H](O)[C@H]1O [GENTIOPICROSIDE]
[1]
  Activity: Non-Toxic
[2]
  inhibition (INH): <=64%
[3]
  inhibition at 5 µM: ≤ 72%
[4]
  Activity: Active
[5]
  Activity: Active
[6]
  Activity: Active
[7]
  Activity: Active
[8]
  Activity: Dose-dependent effect
[9]
  Activity: Active
[10]
  Activity: Active
[11]
  Activity: Active
[12]
  Activity: Active
[13]
  Activity: Active
[14]
  Activity: Active
[15]
  Activity: Active
[16]
  Activity: Active
[17]
  Activity: Active
[18]
  Activity: Active
[19]
  Activity: Active
